In patent publication US20200371122A1, “BIOMARKER FOR SENESCENT CELLS” (Buck Institute for Research on Aging, priority 2017, published 2020):

Tests used:
Type in all cases: in vivo, mouse
p16-positive cells = test: Eicosanoid synthase gene expression in livers of doxorubicin-treated or aged p16-3MR mice; conditions: liver
Protocol: RNA was extracted from cells or tissues using commercially available kits (Isolate II—Bioline for cells; Direct-zol—Zymo for tissues) according to the manufacturer's instructions. cDNA synthesis was performed using a High Capacity cDNA Reverse Transcription Kit (Thermo Fisher) according to the manufacturer's instructions. Quantitative PCR was performed on a LightCycler 480 II (Roche) using primers and probes designed for the Universal Probe Library. Primers and probes used for human transcripts were ACTB: 5′-CCAACCGCGAGAAGATGA (SEQ ID NO:1), 5′-TCCATCACGATGCCAGTG (SEQ ID NO:2), Probe #64; TUBA: 5′-cttcgtctccgccatcag (SEQ ID NO:3), 5′-ttgccaatctggacacca (SEQ ID NO:4), Probe #58; ALOX5: 5′-[…] (SEQ ID NO:5), 5′-[…] (SEQ ID NO:6), Probe #64; ALOX5AP: 5′-ggtctgcggggctacttt (SEQ ID NO:7), 5′-[…] (SEQ ID NO:8), Probe #18; ALOX12: 5′-[…] (SEQ ID NO:9), 5′-agccaggtcgtcaggag (SEQ ID NO:10), Probe #32; ALOX15: 5′-[…] (SEQ ID NO:11), 5′-[…] (SEQ ID NO:12), Probe #76; ALOX15B: 5′-[…] (SEQ ID NO:13), 5′-actgggaggcgaagaagg (SEQ ID NO:14), Probe #51; AKR1C1: 5′-catgcctgtcctgggattt (SEQ ID NO:15), 5′-[…] (SEQ ID NO:16), Probe #49; AKR1C2: 5′-ctatgcgcctgcagaggt (SEQ ID NO:17), 5′-[…] (SEQ ID NO:18), Probe #31; AKR1C3: 5′-[…] (SEQ ID NO:19), 5′-[…] (SEQ ID NO:20), Probe #78; CYSLTR2: 5′-[…] (SEQ ID NO:21), 5′-[…] (SEQ ID NO:22), Probe #18; DPEP1: 5′-gacgtcctgaggctggtg (SEQ ID NO:23), 5′-[…] […]

[1] = test system: C57BL6/J and p16-3MR mice injured with bleomycin; test: Bleomycin-induced pulmonary fibrosis in mice
[2] = test system: C57BL6/J and p16-3MR mice injured with bleomycin; test: Bleomycin-induced pulmonary fibrosis in mice; remark: listed apart in the source
Protocol: RNA was extracted from cells or tissues using commercially available kits (Isolate II—Bioline for cells; Direct-zol—Zymo for tissues) according to the manufacturer's instructions. cDNA synthesis was performed using a High Capacity cDNA Reverse Transcription Kit (Thermo Fisher) according to the manufacturer's instructions. Quantitative PCR was performed on a LightCycler 480 II (Roche) using primers and probes designed for the Universal Probe Library. Primers and probes used for human transcripts were ACTB: 5′-CCAACCGCGAGAAGATGA (SEQ ID NO:1), 5′-TCCATCACGATGCCAGTG (SEQ ID NO:2), Probe #64; TUBA: 5′-cttcgtctccgccatcag (SEQ ID NO:3), 5′-ttgccaatctggacacca (SEQ ID NO:4), Probe #58; ALOX5: 5′-[…] (SEQ ID NO:5), 5′-[…] (SEQ ID NO:6), Probe #64; ALOX5AP: 5′-ggtctgcggggctacttt (SEQ ID NO:7), 5′-[…] (SEQ ID NO:8), Probe #18; ALOX12: 5′-[…] (SEQ ID NO:9), 5′-agccaggtcgtcaggag (SEQ ID NO:10), Probe #32; ALOX15: 5′-[…] (SEQ ID NO:11), 5′-[…] (SEQ ID NO:12), Probe #76; ALOX15B: 5′-[…] (SEQ ID NO:13), 5′-actgggaggcgaagaagg (SEQ ID NO:14), Probe #51; AKR1C1: 5′-catgcctgtcctgggattt (SEQ ID NO:15), 5′-[…] (SEQ ID NO:16), Probe #49; AKR1C2: 5′-ctatgcgcctgcagaggt (SEQ ID NO:17), 5′-[…] (SEQ ID NO:18), Probe #31; AKR1C3: 5′-[…] (SEQ ID NO:19), 5′-[…] (SEQ ID NO:20), Probe #78; CYSLTR2: 5′-[…] (SEQ ID NO:21), 5′-[…] (SEQ ID NO:22), Probe #18; DPEP1: 5′-gacgtcctgaggctggtg (SEQ ID NO:23), 5′-[…] (SEQ ID NO:24), Probe #9 (SEQ ID NO:25), ELOVL2: 5′-[…] (SEQ ID NO:26), 5′-[…] (SEQ ID NO:27), Probe #53; ELOVL4: 5′-catttggcccatggattc (SEQ ID NO:28), 5′-[…] (SEQ ID NO:29), Probe #31; ELOVL5: 5′-cccttccatgcgtccata (SEQ ID NO:30), 5′-[…] (SEQ ID NO:31), Probe #31; EPHX2: 5′-ttctgctggacaccctgaa (SEQ ID NO:32), 5′-[…] (SEQ ID NO:33), Probe #45; GPX4: 5′-ttcccgtgtaaccagttcg (SEQ ID NO:34), 5′-[…] (SEQ ID NO:35), Probe #36; LTA4H: 5′-ctgctctcacggtccagtc (SEQ ID NO:36), 5′-[…] (SEQ ID NO:37), Probe #64; LTBR2: 5′-[…] (SEQ ID NO:38), 5′-[…] (SEQ ID NO:39), Probe #33; LTC4S: 5′-[…] (SEQ ID NO:40), 5′-[…] (SEQ ID NO:41), Probe #18; PTGDS: 5′-[…] (SEQ ID NO:42), 5′-[…] (SEQ ID NO:43), Probe #36; PTGES: 5′-agagatgcctgcccacag (SEQ ID NO:44), 5′-tggccaccacgtacatctt (SEQ ID NO:45), Probe #4; PTGES2: 5′-[…] (SEQ ID NO:46), 5′-[…] (SEQ ID NO:47), Probe #49; PTGES3 (SEQ ID NO:48), 5′-[…] (SEQ ID NO:49), 5′-[…] (SEQ ID NO:50), Probe #48; PTGIS: 5′-[…] (SEQ ID NO:51), 5′-[…] (SEQ ID NO:52), Probe #45; PTGR1: 5′-atgatggggcagcaagtg (SEQ ID NO:53), 5′-cccatcagaaatggagtgc (SEQ ID NO:54), Probe #64; PTGS1: 5′-[…] (SEQ ID NO:55), 5′-gtggtggtccatgttcctg (SEQ ID NO:56), Probe #81; PTGS2: 5′-gatccccagggctcaaac (SEQ ID NO:57), 5′-[…] (SEQ ID NO:58), Probe #61; TBXAS1: 5′-[…] (SEQ ID NO:59), 5′-tgcctcccgtgtgaatct (SEQ ID NO:60), Probe #73; AREG: 5′-[…] (SEQ ID NO:61), 5′-[…] (SEQ ID NO:62), Probe #73; CCL2: 5′-AGTCTCTGCCGCCCTTCT (SEQ ID NO:63), 5′-GTGACTGGGGCATTGATTG (SEQ ID NO:64), Probe #40; CCL27: 5′-[…] (SEQ ID NO:65), 5′-gctgggtggcagtaggaat (SEQ ID NO:66), Probe #18; CXCL1: 5′-[…] (SEQ ID NO:67), 5′-[…] (SEQ ID NO:68), Probe #52; HGF: 5′-[…] (SEQ ID NO:69), 5′-[…] (SEQ ID NO:70), Probe #49; ILIA: 5′-[…] (SEQ ID NO:71), 5′-[…] (SEQ ID NO:72), Probe #6; IL1B: 5′-[…] (SEQ ID NO:73), 5′-[…] (SEQ ID NO:74), Probe #78; IL6: 5′-[…] (SEQ ID NO:75), 5′-gaaggcagcaggcaacac (SEQ ID NO:76), Probe #45; IL8: 5′-[…] (SEQ ID NO:77), 5′-atggttccttccggtggt (SEQ ID NO:78), Probe #72; IL10: 5′-[…] (SEQ ID NO:79), 5′-[…] (SEQ ID NO:80), Probe #67; MMP3: 5′-[…] (SEQ ID NO:81), 5′-[…] (SEQ ID NO:82), Probe #36; PDGFA: 5′-[…] (SEQ ID NO:83), 5′-[…] […]

[3] = bleomycin-treated animals, day 14, ELISA

## Nc1nc(O)c2ncn(COC(CO)CO)c2n1 [GCV, ganciclovir]
p16-positive cells; doxorubicin-treated p16-3MR mice, day 10
  eicosanoid synthase expression: reduced
p16-positive cells; p16-3MR mice aged 21 months
  eicosanoid synthase expression: not statistically significant
[1]; 21 days after injury
  collagen content (hydroxyproline): reduced
[1]; [3]
  cysteinyl leukotrienes in bronchioalveolar lavage fluid (BALF): reduced
  prostaglandin E2 in bronchioalveolar lavage fluid (BALF): reduced
[2]; 14 days after bleomycin injury
  RNA levels of p16INK4a and p21WAF1 in lungs: significantly attenuated
[2]; bleomycin-injured mice, 21 days after injury as printed
  collagen expression (Col3a1 and Col4a1): reduced
